{"source": "patent US20110275576A1", "about": "“Carbohydrate-Cyclopamine Conjugates as Anticancer Agents” (Utah State University, priority 2009, published 2011)", "test_system": "A549 cells", "assay": "MTS assay, proliferation of A549 cells", "assay_type": "cell-based, human", "details": "for proliferation of A549 cells: statement on Table 1; for IC50: read-out: IC50, anticancer activity against lung cancer", "description": "Experimental procedure for MTS assay. To determine the efficacy of the compounds to cancer cells, a 3-(4,5-dimethylthiazol-2-yl)-5-(3-carboxymethoxyphenyl)-2-(4- sulfophenyl)-2H-tetrazolium inner salt (MTS) assay was used. A549 cells (ATCC, Manassas, Va.), representing a human lung carcinoma cell line, were plated on flat-bottomed 96-well plates in the presence of various concentrations of each compound. After incubation for up to 48 h at 37° C., the percentage of cell proliferation was determined with the MTS assay (Promega CellTiter 96 Aqueous Assay. Madison, Wis.), following the manufacturer's instruction.", "key": {"[1]": {"details": "A549 human lung carcinoma cells, MTS assay, incubation up to 48 h at 37° C."}}, "note": "Like-named read-outs stand apart in the source and are kept apart here.", "data": [{"smiles": "CC1=C2C[C@H]3[C@@H](CC=C4C[C@@H](O)CC[C@@]43C)[C@@H]2CC[C@]12O[C@@H]1C[C@H](C)CN(Cc3cn([C@@H]4OC(CO)[C@@H](O)C(O)C4O)nn3)[C@H]1[C@H]2C", "note": "(stereo partly drawn) [Example 3a, N-(1-(β-D-Glucopyranosyl)-1H-1,2,3-triazol-4-yl)methylcyclopamine]", "values": [{"measurement": "proliferation of A549 cells", "setting": "A549 cells, MTS assay", "value": "reduced the proliferation of A549 cells"}, {"measurement": "IC50", "setting": "[1]", "value": 144, "unit": "µM"}]}, {"smiles": "CC1=C2C[C@H]3[C@@H](CC=C4C[C@@H](O)CC[C@@]43C)[C@@H]2CC[C@]12O[C@@H]1C[C@H](C)CN(Cc3cn([C@@H]4OC(CO)[C@@H](O[C@@H]5OC(CO)[C@H](O)C(O)C5O)C(O)C4O)nn3)[C@H]1[C@H]2C", "note": "(stereo partly drawn) [Example 3d, N-(1-(4-O-(β-D-Galactopyranosyl)-β-D-glucopyranosyl)-1H-1,2,3-triazol-4-yl)methylcyclopamine]", "values": [{"measurement": "proliferation of A549 cells", "setting": "A549 cells, MTS assay", "value": "reduced the proliferation of A549 cells"}, {"measurement": "IC50", "setting": "Homo sapiens, A549, 48 h", "value": 183, "unit": "µM"}]}, {"smiles": "CC1=C2C[C@H]3[C@@H](CC=C4C[C@@H](O)CC[C@@]43C)[C@@H]2CC[C@]12O[C@@H]1C[C@H](C)CN(Cc3cn(C4OC(C)[C@H](O)C(O)[C@@H]4O)nn3)[C@H]1[C@H]2C", "note": "(stereo partly drawn) [Example 3f, N-(1-(α-L-Rhamnopyranosyl)-1H-1,2,3-triazol-4-yl)methylcyclopamine]", "values": [{"measurement": "proliferation of A549 cells compared with cyclopamine", "setting": "A549 cells, MTS assay, comparison with cyclopamine", "value": "reduced the proliferation of A549 cells more than cyclopamine"}, {"measurement": "proliferation of A549 cells", "setting": "A549 cells, MTS assay", "value": "reduced the proliferation of A549 cells"}, {"measurement": "IC50", "setting": "[1]", "value": 33, "unit": "µM"}]}, {"smiles": "CC1=C2C[C@H]3[C@@H](CC=C4C[C@@H](O)CC[C@@]43C)[C@@H]2CC[C@]12O[C@@H]1C[C@H](C)CN(Cc3cn([C@@H]4OC(CO)[C@@H](O[C@@H]5OC(CO)[C@@H](O[C@@H]6OC(CO)[C@@H](O)C(O)C6O)C(O)C5O)C(O)C4O)nn3)[C@H]1[C@H]2C", "note": "(stereo partly shown) [Example 3k]", "values": [{"measurement": "proliferation of A549 cells", "setting": "A549 cells, MTS assay", "value": "reduced the proliferation of A549 cells"}, {"measurement": "IC50", "setting": "[1]", "value": 96, "unit": "µM"}]}, {"smiles": "CC1=C2C[C@H]3[C@@H](CC=C4C[C@@H](O)CC[C@@]43C)[C@@H]2CC[C@]12O[C@@H]1C[C@H](C)CN[C@H]1[C@H]2C", "note": "[cyclopamine]", "values": [{"measurement": "IC50", "setting": "Homo sapiens, A549, 48 h", "value": 49, "unit": "µM"}]}]}
